Like-named read-outs stand apart in the source and are kept apart here.
Experiment: Single dose pharmacokinetic study in cynomolgus monkey
Type: in vivo
Description: Pharmacokinetic studies were conducted in male beagle dogs and male cynomolgus monkeys at SRI International, Menlo Park, CA. General procedures for animal care and housing were in accordance with the National Research Council (NRC) Guide for the Care and Use of Laboratory Animals (1996) and the Animal Welfare Standards incorporated in 9 CFR Part 3, 1991 and complied with guidelines set forth by the ARVO Animal Statement for the Use of Animals in Ophthalmic and Vision Research. During the course of the PK experiments, cynomolgus monkeys were individually housed in stainless steel primary enclosures in an AAALAC-accredited facility. Animals were fed a commercial monkey chow, and supplemental food was provided (fresh fruits, vegetables, seeds, and nuts). Reverse osmosis-purified drinking water was available at all times. Cynomolgus monkeys were maintained on a 12:12 hour light:dark cycle at the 64–84°F temperature and 30–70% humidity. Monkeys had access to enrichment opportunities (grooming devices, foraging devices, activity panels and mirrors) and were provided auditory stimuli and human interaction enrichment throughout the study. Blood samples were collected by venipuncture of a peripheral vein. Animals were acclimated to the squeeze back mechanism in their home cage by repeated, short periods of restraint during general husbandry procedures for at least 2 weeks prior to dosing. Animal were not removed from their cages for collection, and no anesthesia/analgesic agents were used for blood collection. […] For PK experiments, beagle dogs were individually housed in enclosed run (≥ 4 ft x 6 ft). Dogs were exposed to their daily ration of food, Harlan Teklad 2025C Certified Global 25% Protein Dog Diet. Water was provided from the public water supply (municipal tap water) ad libitum. Dogs were maintained on a 12:12 hour light:dark cycle at the 72–73°F temperature and 40–71% humidity. Every effort was made to minimize, if not eliminate, pain and suffering in all animals in this study. No restraining devices were used in blood collecting procedures. Dogs were gentle hand-held to restrain by trained technicians with the dogs foreleg extended for sample collection of blood from cephalic vein. Animals were awake during blood sample collection with no anesthesia/analgesic agents used, and positive reinforcement by the technician was provided following collection. […] All dogs were released back to the colony after the study was completed. Male beagle dogs and male cynomolgus monkey received a single i.v. dose of a test compound at 0.5 mg kg^−1 (dog) and 1 mg kg^−1 (monkey) or a single p.o. dose of a test compound of at 2 mg kg^−1 (dog) and 5 mg kg^−1 (monkey). The number of animals that was used in PK experiments is 3 per study group. Intravenous administration vehicle was 3% DMA/45% PEG300/12% ethanol/40% sterile water; p.o. vehicle was 2% Tween 80 in 0.9% saline. […] Blood samples were processed to plasma. Following protein extraction with acetonitrile, compound concentrations in plasma were measured by LC-MS/MS. The plasma drug level data were analyzed using WinNonlin software package; Model 201 (for i.v. bolus administration);was used for the analysis of i.v. data, and Model 200 (for extravascular administration) was used for the analysis of the p.o. data. Aliquots of pre-dose plasma samples, as well as aliquots of plasma PK samples, were used for the analysis of the plasmabiomarker, RBP4.
Administration to Non-Human Primates
II. MATERIALS AND METHODS

[1] = Cyno, 5.0 mg kg^−1 p.o., mean ± SD, n=3
[2] = male, cynomolgus monkey, plasma, iv, 1 mg/kg, non-human primate, iv 1.0 mg/kg, read-out: Plasma level, Individual animals
[3] = male, cynomolgus monkey, plasma, iv, 1 mg/kg, non-human primate, iv 1.0 mg/kg, read-out: Plasma level, Mean
[4] = male, cynomolgus monkey, plasma, po, 5 mg/kg, non-human primate, po 5 mg/kg, read-out: Plasma level, Individual animals
[5] = male, cynomolgus monkey, plasma, po, 5 mg/kg, non-human primate, po 5 mg/kg, read-out: Plasma level, Mean

SMILES: Cc1cc(C(=O)O)nc(N2C[C@H]3C[C@@H](c4ccccc4C(F)(F)F)C[C@H]3C2)n1 [BPN-14136]
- %F, bioavailability (Cyno, 5.0 mg kg^−1 p.o. vs 1.0 mg kg^−1 i.v.): 84.3 ± 24.8%
- AUCinf [1]: 826.6 ± 243.1 µg·h/mL
- Cmax [1]: 31500 ± 200 ng/mL
- AUC(0-inf) (male, cynomolgus monkey, plasma, iv, 1 mg/kg, Cyno, 1.0 mg kg^−1 i.v., mean ± SD, n=3): 196 ± 42.2 µg·h/mL
- Cmax (male, cynomolgus monkey, plasma, iv, 1 mg/kg, Cyno, 1.0 mg kg^−1 i.v., mean ± SD, n=3, read-out: Cmax, maximum observed concentration at first time point): 11400 ± 600 ng/mL
- concentration at 0.0083 hr [2]: 10900 ng/mL
- concentration at 0.0083 hr [3]: 11400 ng/mL
- concentration at 0.25 hr (male, cynomolgus monkey, plasma, iv, 1 mg/kg, non-human primate, iv 1.0 mg/kg, 0.25 hr, read-out: Plasma level, Individual animals): 10500 ng/mL
- concentration at 0.25 hr (male, cynomolgus monkey, plasma, iv, 1 mg/kg, non-human primate, iv 1.0 mg/kg, 0.25 hr, read-out: Plasma level, Mean): 10700 ng/mL
- concentration at 0.5 hr [2]: 9300 ng/mL
- concentration at 0.5 hr [3]: 9570 ng/mL
- concentration at 1 hr [2]: 9470 ng/mL
- concentration at 1 hr [3]: 9060 ng/mL
- concentration at 2 hr [2]: 8910 ng/mL
- concentration at 2 hr [3]: 8080 ng/mL
- concentration at 4 hr [2]: 7450 ng/mL
- concentration at 4 hr [3]: 7080 ng/mL
- concentration at 8 hr [2]: 6160 ng/mL
- concentration at 8 hr [3]: 5890 ng/mL
- concentration at 12 hr [2]: 4470 ng/mL
- concentration at 12 hr [3]: 4780 ng/mL
- concentration at 24 hr [2]: 2840 ng/mL
- concentration at 24 hr [3]: 2930 ng/mL
- concentration at 36 hr (male, cynomolgus monkey, plasma, iv, 1 mg/kg, non-human primate, iv 1.0 mg/kg, 36 hr, read-out: Plasma level, Mean): 1670 ng/mL
- concentration at 48 hr (male, cynomolgus monkey, plasma, iv, 1 mg/kg, non-human primate, iv 1.0 mg/kg, 48 hr, read-out: Plasma level, Mean): 1050 ng/mL
- AUC(0-t) (male, cynomolgus monkey, plasma, iv, Cyno, 1.0 mg kg^−1 i.v., mean ± SD, n=3): 171 ± 27 µg·h/mL
- clearance (male, cynomolgus monkey, plasma, iv, Cyno, 1.0 mg kg^−1 i.v., mean ± SD, n=3, read-out: CL, total body clearance (converted)): 5.25 mL/h/kg
- half-life (male, cynomolgus monkey, plasma, iv, Cyno, 1.0 mg kg^−1 i.v., mean ± SD, n=3, read-out: T1/2, apparent terminal half-life (converted)): 15.6 ± 3.3 h
- Vd (male, cynomolgus monkey, plasma, iv, Cyno, 1.0 mg kg^−1 i.v., mean ± SD, n=3, read-out: Vss, volume of distribution at steady state): 0.113 ± 0.004 L/kg
- bioavailability (male, cynomolgus monkey, plasma, oral, 5 mg kg^−1, Cyno, 5.0 mg kg^−1 p.o. vs 1.0 mg kg^−1 i.v., read-out: %F, bioavailability): ~84%
- AUC(0-inf) (male, cynomolgus monkey, plasma, po, 5 mg/kg, Cyno, 5.0 mg kg^−1 p.o., mean ± SD, n=3): 676 µg·h/mL
- Cmax (male, cynomolgus monkey, plasma, po, 5 mg/kg, Cyno, 5.0 mg kg^−1 p.o., mean ± SD, n=3, read-out: Cmax): 31400 ng/mL
- concentration at 0.25 hr (male, cynomolgus monkey, plasma, po, 5 mg/kg, non-human primate, po 5 mg/kg, 0.25 hr, read-out: Plasma level, Individual animals): 9720 ng/mL
- concentration at 0.25 h (male, cynomolgus monkey, plasma, po, 5 mg/kg, non-human primate, po 5 mg/kg, 0.25 hr, read-out: Plasma level, Mean): 11100 ng/mL
- concentration at 0.5 h [4]: 28100 ng/mL
- concentration at 0.5 h [5]: 22200 ng/mL
- concentration at 1 hr [4]: 24600 ng/mL
- concentration at 1 hr [5]: 29800 ng/mL
- concentration at 2 hr [4]: 32400 ng/mL
- concentration at 2 hr [5]: 31200 ng/mL
